This test relates to E. coli V3065 growth, OD600 absorbance. The test can be described thus: E. coli V3065 growth inhibition, dose response, counter-screen for AddAB recombination inhibitor project, absorbance, OD600 (AID 504678).

Results on twelve compounds are retold here after PubChem BioAssay AID504678 (The Scripps Research Institute Molecular Screening Center, 2011).

The structures appear in SMILES notation. The source made the active and inactive calls.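 Rule for the calls: active = compound whose IC50 against bacterial viability is at or below 10 µM; inactive = IC50 above 10 µM.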

Turning to `N#Cc1c(NC(=O)c2ccc([N+](=O)[O-])o2)sc2c1CCC2`, the IC50 – broadly, the concentration that gives 50% inhibition – was > 119 µM (inactive).

As for `Cc1ccc2nc(/C(C#N)=C\c3ccc([N+](=O)[O-])o3)[nH]c2c1`, the IC50 is > 119 µM (inactive).

For `Cc1cccnc1NC(=O)c1ccc([N+](=O)[O-])o1`, the IC50 is 39.5 µM (inactive).

As for `C=CCn1c(Sc2ncc([N+](=O)[O-])s2)n[nH]c1=O`, the IC50 is 20.4 µM (inactive).

On to `O=C(NCc1cccnc1)c1ccc([N+](=O)[O-])o1`, for which the IC50 was > 39.5 µM (inactive).

Regarding `NC(=O)c1ccsc1NC(=O)COC(=O)c1ccc([N+](=O)[O-])o1`, the IC50 was > 119 µM (inactive).

For `O=C(Nc1cccc(NC(=O)c2ccccc2Cl)c1)c1ccc([N+](=O)[O-])o1`, the IC50 was > 119 µM (inactive).

For `CC(=O)Nc1ccc2nc(NC(=O)c3ccc([N+](=O)[O-])o3)sc2c1`, the IC50 was > 119 µM (inactive).

With `CCn1cc(C(=O)O)c(=O)c2cnc(N3CCN(C(=S)Nc4ccccc4C(F)(F)F)CC3)nc21`, the IC50 was > 39.5 µM (inactive).

As for `O=C(Nc1ccc(N2CCOCC2)cc1)c1ccc([N+](=O)[O-])o1`, the IC50 is 17.3 µM (inactive).

Consider `O=C(Nc1ncccn1)c1ccc([N+](=O)[O-])o1`, for which the IC50 is 33 µM (inactive).

In the case of `O=C(OCC(=O)c1cccs1)c1ccc([N+](=O)[O-])o1`, the IC50 is > 119 µM (inactive).
